According to ChEMBL document CHEMBL4219040, “Modulation of Glycine-Mediated Spinal Neurotransmission for the Treatment of Chronic Pain” (J Med Chem, 2018):
Changes are numbered by the printed parent chain. Values belong to the compound of their own block, whether it stands above or below them.

How the values were obtained:
[1] = target: T1, Glycine receptor alpha-3/beta (Homo sapiens, UniProt O75311+P48167); assay: Positive allosteric modulation of human GlyRalpha3beta expressed in CHO cells assessed as potentiation of EC20 glycine-induced response at 5.9 uM by fluorescence based HTS assay; format: cell-based
[2] = target: T1, Glycine receptor alpha-3/beta; assay: Positive allosteric modulation of human GlyRalpha3beta expressed in CHO cells assessed as potentiation of EC20 glycine-induced ion flux at 10 uM by HT assay; format: cell-based
[3] = target: T1, Glycine receptor alpha-3/beta; assay: Positive allosteric modulation of human GlyRalpha3beta expressed in CHO cells assessed as potentiation of EC5 to EC10 glycine-induced response at 10 uM by manual patch clamp assay; format: cell-based
[4] = target: T2, Glycine receptor subunit alpha-3 (Mus musculus) (UniProt Q91XP5); assay: Allosteric modulation of GlyRalpha3 in VGAT::ChR2 BAC transgenic mouse lumbar spinal cord slices assessed as increase in decay time constants of light-evoked Gly-IPSC at 100 uM by Whole cell patch clamp method
T2 sequence (whole entry): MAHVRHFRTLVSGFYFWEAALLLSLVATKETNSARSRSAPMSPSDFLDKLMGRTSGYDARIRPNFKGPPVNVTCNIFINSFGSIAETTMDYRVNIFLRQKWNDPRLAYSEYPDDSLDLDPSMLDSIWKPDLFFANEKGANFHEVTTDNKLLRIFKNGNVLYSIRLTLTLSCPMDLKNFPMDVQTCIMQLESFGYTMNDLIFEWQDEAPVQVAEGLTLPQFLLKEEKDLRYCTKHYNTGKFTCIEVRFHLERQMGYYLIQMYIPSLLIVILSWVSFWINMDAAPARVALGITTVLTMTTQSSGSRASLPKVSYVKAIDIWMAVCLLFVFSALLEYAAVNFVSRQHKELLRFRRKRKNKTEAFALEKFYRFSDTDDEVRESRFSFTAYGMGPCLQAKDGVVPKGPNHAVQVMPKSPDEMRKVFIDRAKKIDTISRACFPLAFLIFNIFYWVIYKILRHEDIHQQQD

[5] = target: T2, Glycine receptor subunit alpha-3 (Mus musculus); assay: Allosteric modulation of zymosan-A treated GlyRalpha3 in VGAT::ChR2 BAC transgenic mouse lumbar spinal cord slices assessed as increase in decay time constants of light-evoked Gly-IPSC at 100 uM by Whole cell patch clamp method
Mus musculus [6] = species: Mus musculus; assay: Analgesic activity in zymosan-A induced inflammation mouse model assessed as reduction in mechanical hyperalgesia; format: functional; design: scale not given: the % may be the effect or the level left
Mus musculus [7] = species: Mus musculus; assay: Analgesic activity in zymosan-A induced inflammation GlyR3 knock out mouse model assessed as reduction in mechanical hyperalgesia; format: functional; design: scale not given: the % may be the effect or the level left
[8] = target: T3, Glycine receptor subunit alpha-1 (Mus musculus, UniProt Q64018); assay: Positive allosteric modulation of mouse GlyRalpha1 expressed in HEK293 cells assessed as potentiation of glycine-induced calcium flux by calcium dye-5 based FLIPR assay; format: cell-based
T3 sequence (Q64018 whole entry): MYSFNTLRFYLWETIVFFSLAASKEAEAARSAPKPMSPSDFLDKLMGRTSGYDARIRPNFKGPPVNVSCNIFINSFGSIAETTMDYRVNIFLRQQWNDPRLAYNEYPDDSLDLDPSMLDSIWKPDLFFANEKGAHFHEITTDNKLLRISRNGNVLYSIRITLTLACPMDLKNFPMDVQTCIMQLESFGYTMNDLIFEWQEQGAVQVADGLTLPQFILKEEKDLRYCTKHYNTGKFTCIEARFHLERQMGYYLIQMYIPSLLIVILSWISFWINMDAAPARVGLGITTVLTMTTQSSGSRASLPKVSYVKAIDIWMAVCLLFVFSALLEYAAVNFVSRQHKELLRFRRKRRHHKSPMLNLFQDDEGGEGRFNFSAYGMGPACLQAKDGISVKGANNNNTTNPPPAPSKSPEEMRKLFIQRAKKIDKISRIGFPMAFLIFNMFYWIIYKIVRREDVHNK

[9] = target: T4, Glycine receptor subunit alpha-3 (Mus musculus, UniProt Q91XP5); assay: Positive allosteric modulation of mouse GlyRalpha3 expressed in HEK293 cells assessed as potentiation of glycine-induced calcium flux by calcium dye-5 based FLIPR assay; format: cell-based
T4 sequence (Q91XP5 whole entry): T2 sequence (whole entry)

[10] = target: T5, Glycine receptor subunit alpha-1 (Homo sapiens) (UniProt P23415); assay: Positive allosteric modulation of human GlyRalpha1 expressed in HEK293 cells assessed as potentiation of glycine-induced calcium flux by calcium dye-5 based FLIPR assay relative to glycine; format: cell-based
T5 sequence (whole entry): T3 sequence (Q64018 whole entry) with F9L, D362E, G365A, N396S, K457Q

[11] = target: Glycine receptor (alpha-1/beta) (Homo sapiens) (UniProt P23415+P48167); assay: Positive allosteric modulation of human GlyRalpha1beta expressed in HEK293 cells assessed as potentiation of glycine-induced calcium flux by calcium dye-5 based FLIPR assay relative to glycine; format: cell-based
[12] = target: T6, Glycine receptor subunit alpha-3 (Homo sapiens) (UniProt O75311); assay: Positive allosteric modulation of human GlyRalpha3 expressed in HEK293 cells assessed as potentiation of glycine-induced calcium flux by calcium dye-5 based FLIPR assay relative to glycine; format: cell-based
T6 sequence (whole entry): T2 sequence (whole entry) with N32D, T372M, V398M, V399T, A406P

[13] = target: T1, Glycine receptor alpha-3/beta; assay: Positive allosteric modulation of human GlyRalpha3beta expressed in HEK293 cells assessed as potentiation of glycine-induced calcium flux by calcium dye-5 based FLIPR assay relative to glycine; format: cell-based
[14] = target: T7, Glycine receptor subunit alpha-1 (Mus musculus) (UniProt Q64018); assay: Positive allosteric modulation of mouse GlyRalpha1 expressed in HEK293 cells assessed as potentiation of glycine-induced calcium flux by calcium dye-5 based FLIPR assay relative to glycine; format: cell-based
T7 sequence (whole entry): T3 sequence (Q64018 whole entry)

[15] = target: T2, Glycine receptor subunit alpha-3 (Mus musculus); assay: Positive allosteric modulation of mouse GlyRalpha3 expressed in HEK293 cells assessed as potentiation of glycine-induced calcium flux by calcium dye-5 based FLIPR assay relative to glycine; format: cell-based
[16] = target: T6, Glycine receptor subunit alpha-3 (Homo sapiens); assay: Positive allosteric modulation of human GlyRalpha3 expressed in HEK293 cells assessed as potentiation of glycine-induced current flux at 100 uM by electrophysiology method relative to control; format: cell-based
[17] = target: T8, Glycine receptor subunit alpha-3 (Homo sapiens, UniProt O75311); assay: Positive allosteric modulation of human GlyRalpha3 expressed in HEK293 cells assessed as potentiation of glycine-induced current flux by electrophysiology method; format: cell-based
T8 sequence (O75311 whole entry): T2 sequence (whole entry) with N32D, T372M, V398M, V399T, A406P

[18] = target: T5, Glycine receptor subunit alpha-1 (Homo sapiens); assay: Positive allosteric modulation of human GlyRalpha1 expressed in HEK293 cells assessed as potentiation of glycine-induced current flux at 100 uM by electrophysiology method relative to control; format: cell-based

Activity [1]: 134%
Activity [2]: 116%
Activity [3]: 309%
Activity [4]: 54%
Activity [5]: 23.5%
Structure (SMILES): CC(C)(C)c1cccc(C(C)(C)C)c1O
Activity (Mus musculus [6]): 44.3%
Activity (Mus musculus [7]): 16%

EC50 [8]: 268 nM
EC50 [9]: 490 nM
Emax [10]: 102%
Emax [11]: 104%
Emax [12]: 100%
Emax [13]: 102%
Emax [14]: 93.5%
Emax [15]: 63.5%
Structure (SMILES): CN1C(=O)[C@@H]2CN(S(=O)(=O)c3ccc4occc4c3)C[C@@H]2c2cnccc21

Activity [16]: 260%
EC50 [17]: 8500 nM
Activity [18]: 110%
Structure (SMILES): CC1=C[C@@H](/C=C(\C)CCCC2=CCN(CC(=O)O)C2=O)[C@]2(OC(=O)C(C)(O)C2=O)[C@@H]2[C@@H](C)CC[C@@H]12 (stereo partly drawn)
